Results from patent EP0973790B1, “ESTRA-5(10),7-DIENES WITH ESTROGENIC ACTIVITY” (Wyeth, priority 1997, dated 1998).

Experiments:
[1] = test system: Immature rats; experiment: In vivo uterotropic activity; conditions: for Uterine Weight (mg) ± SD: n=6/group
[2] = biological target: human estrogen receptor (hER-α) (Homo sapiens, UniProt P03372); experiment: Estrogen receptor binding, whole cell test procedure; conditions: comparison values for known estrogens
human estrogen receptor (hER-α), sequence (P03372 whole entry): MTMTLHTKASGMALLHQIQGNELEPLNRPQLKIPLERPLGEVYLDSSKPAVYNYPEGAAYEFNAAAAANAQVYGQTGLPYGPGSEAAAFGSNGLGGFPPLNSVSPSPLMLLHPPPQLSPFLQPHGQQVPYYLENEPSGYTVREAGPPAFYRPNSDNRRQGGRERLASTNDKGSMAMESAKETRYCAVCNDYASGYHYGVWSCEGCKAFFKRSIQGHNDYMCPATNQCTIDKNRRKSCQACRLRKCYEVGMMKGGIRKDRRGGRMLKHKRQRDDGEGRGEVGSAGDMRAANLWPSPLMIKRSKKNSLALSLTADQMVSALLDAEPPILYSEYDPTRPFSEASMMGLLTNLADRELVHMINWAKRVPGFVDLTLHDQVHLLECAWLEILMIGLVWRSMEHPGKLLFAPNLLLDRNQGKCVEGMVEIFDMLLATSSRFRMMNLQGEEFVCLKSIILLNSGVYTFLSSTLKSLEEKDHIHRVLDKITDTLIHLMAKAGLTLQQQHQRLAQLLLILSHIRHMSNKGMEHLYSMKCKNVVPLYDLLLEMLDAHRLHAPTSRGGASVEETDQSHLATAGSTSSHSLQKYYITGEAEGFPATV

Row | SMILES | Uterine Weight (mg) ± SD ([1]; 1 µg, three days S.C.) | Uterine Weight (mg) ± SD ([1]; 10 µg, three days S.C.) | Uterine Weight (mg) ± SD ([1]; 100 µg, three days S.C.) | Uterine Weight (mg) ± SD ([1]; 500 µg, three days S.C.) | other results
1 | C[C@]12CC[C@@H]3c4ccc(O)cc4CC[C@H]3[C@@H]1CCC2=O [estrone, reference compound] | – | – | – | – | EC50 ([1]; estimated in similar test procedures): 0.2 mg/kg
2 | C#C[C@]1(O)CC[C@H]2[C@@H]3CCc4cc(O)ccc4[C@H]3CC[C@@]21C [Ethinyl Estradiol, reference compound] | – | – | – | – | Uterine Weight (mg) ± SD ([1]; 0.5 µg, three days): 101.2 ± 2.8 mg
3 | CC12CCC3C(=CCC4=C3CCC(O)C4)C1CCC2=O (stereo not drawn) [5B, estra-5(10),7-dien-3β-ol-17-one] | 31.7 ± 6.6 mg | 43.5 ± 6.9 mg | 79.7 ± 5.8 mg | 82.6 ± 8.6 mg | Uterine Weight (mg) ± SD ([1]; 0.1 µg, three days S.C.): 34.1 ± 6.2 mg
4 | C[C@]12CCc3c(ccc4cc(O)ccc34)[C@@H]1CCC2=O [equilenen] | – | – | – | – | Ki [2]: 375 nM
5 | CC12CCC3C(=CCC4=C3CCC(O)C4)C1CCC2=O (stereo not drawn) [5A, estra-5(10),7-dien-3α-ol-17-one] | 28.7 ± 2.7 mg | 33.3 ± 4.4 mg | 66.5 ± 4.7 mg | 78.9 ± 13.6 mg | estimated EC50 ([1]; uterine stimulation, in words relative to 5B): somewhat lower
